Test results taken from patent US12552800B2, “Compounds for diagnosis” (AC IMMUNE SA, priority 2020, dated 2026).

Assays:
[1] = target: T1, PD brain-derived a-syn aggregates (Homo sapiens, UniProt P37840); test: Micro-radiobinding competition assay against Example-1 [^3H-1] (Table 8); format: binding; settings: human PD brain-derived a-syn aggregates; for Competition at 100 nM (%): 100 nM non-radiolabelled example compound vs Example-1 [^3H-1] ligand; for Competition at 1 μM (%): 1 μM non-radiolabelled example compound vs Example-1 [^3H-1] ligand
T1 construct: from tissue; host or cells: human PD donor brain, sarkosyl-insoluble 100,000 x g pellet
Summary of the method: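 Human PD brain-derived α-syn aggregates on microarray slides were co-incubated with 6 nM or 20 nM tritiated radioligand and unlabelled compound at 1 μM and 100 nM, some over 0.05 nM–2 μM. Bound signal read by real-time autoradiography; values are % competition, at least two technical replicates, mean of independent experiments.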

[2] = target: T1, PD brain-derived a-syn aggregates; test: as above; format: binding; settings: competition over Example-1 [^3H-1]
[3] = target: T1, PD brain-derived a-syn aggregates; test: Micro-radiobinding competition assay against [^3H]-a-syn-Ref; format: binding; settings: for Competition at 1 μM (%): over [^3H]-a-syn-Ref at 20 nM, example compound at 1 μM
Experimental: The procedure was adapted from the protocol described in Spillantini et al., 1998. Frozen tissue blocks from PD donors were thawed on ice and homogenized using a glass dounce homogenizer. The homogenate was then centrifuged at 11,000×g (12,700 RPM) in an ultracentrifuge (Beckman, XL100K) for 20 minutes at 4° C. using a pre-cooled 70.1 rotor (Beckman, 342184). Pellets were resuspended in extraction buffer [10 mM Tris-HCl pH 7.4, 10% sucrose, […], 1% protease inhibitor (Calbiochem 539131), 1 mM EGTA, 1% phosphatase inhibitor (Sigma P5726 and P0044)] and centrifuged at 15,000×g (14,800 RPM, a 70.1 Ti rotor) for 20 minutes at 4° C. Pellets were discarded and sarkosyl (20% stock solution, Sigma L7414) was added to the supernatants to a final concentration of 1% at room temperature for one hour. This solution was then centrifuged at 100,000×g (38,000 RPM, 70.1 Ti rotor) for one hour at 4° C. Pellets containing enriched a-syn aggregates were resuspended in PBS and stored at −80° C. until use.
PD brain-derived a-syn aggregates were spotted onto microarray slides. The slides were incubated with the tritiated reference ligand, [^3H]-a-syn-Ref (as described in WO2017/153601) at 20 nM and the example compounds of this invention (non-radiolabelled) either at 1 μM or at increasing concentrations in the range of 50 pM to 2 μM. After incubation, slides were washed and exposed to a phosphor storage screen (GE healthcare, BAS-IP TR 2025). Following exposure, phosphor storage screens were scanned with a laser imaging system (Typhoon FLA 7000) to readout the signal from the radiobinding experiments described above. Quantification of the signal was performed using the ImageJ software package. […] All measurements were performed with at least two technical replicates.
Example compounds were assessed for their potency to compete with the binding of [3H] radiolabelled reference ligand to PD patient brain-derived a-syn aggregates. Results of the micro-radiobinding competition assay for the example compounds tested are shown in Table 5 as: % competition at 1 μM and Ki value. All measurements were performed on the same PD brain-derived a-syn aggregates.

[4] = target: T2, Abeta pathological aggregates (Homo sapiens, UniProt P05067); test: Radiobinding competition assay against [^3H]-Abeta-Ref on AD brain homogenates (example compound 1); format: binding
T2 construct: Abeta pathological aggregates present in the human AD brain homogenates; from tissue; host or cells: human AD donor brain, Triton/sucrose-insoluble 100,000 x g pellet
Experimental: The procedure was adapted from the protocol described in Bagchi et al., 2013. Frozen tissue blocks from AD donors were thawed on ice and homogenized in high salt buffer (50 mM Tris-HCl pH 7.5, 0.75M NaCl, 5 mM EDTA) supplemented with protease inhibitors (Complete; Roche 11697498001) at 4° C. using a glass Dounce homogenizer. The homogenate was centrifuged at 100,000×g (38,000 RPM) in an ultracentrifuge (Beckman, XL100K) for one hour at 4° C. using a pre-cooled 70.1 rotor (Beckman, 342184). Pellets were resuspended in high salt buffer supplemented with 1% Triton X-100 and homogenized at 4° C. using a glass Dounce homogenizer. The homogenates were centrifuged again at 100,000×g (38,000 RPM, 70.1 rotor) for one hour at 4° C. Pellets were resuspended in high salt buffer supplemented with 1% Triton X-100 and 1 M sucrose and homogenized at 4° C. using a glass Dounce homogenizer. The homogenates were centrifuged at 100,000×g (38,000 RPM, 70.1 rotor) for one hour at 4° C. […]
A fixed concentration of AD insoluble fraction was incubated with a tritiated reference Abeta ligand ([^3H]-Abeta-Ref) at 10 nM and increasing concentrations of non-radiolabelled example compound 1 in the range of […] to 2 μM for two hours at RT. […] The filters were analyzed on a Microbeta2 scintillation counter (PerkinElmer). […]

[5] = PK study in a healthy monkey by PET; format: in vivo, Non-Human Primate (NHP); settings: iv, 6.5 mCi
Experimental: Non-Human Primate (NHP) was injected intravenously (iv) with the ^18F-labelled Example-1 [^18F-1] (6.5 mCi) using 1 mL ethanol and 14 mL ascorbate/saline (ascorbate solution was prepared at a concentration of 9.3 mg/mL). Monkey PET scans were performed using a Siemens Focus 220. PET acquisition started immediately before the radioactive dose was injected. Images were generated as dynamic scans for 120 minutes with head focused.

T2 sequence (P05067 672-713 limits assumed): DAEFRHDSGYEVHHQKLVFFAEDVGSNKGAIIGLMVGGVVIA

| Competition at 100 nM (%) [1] | Competition at 1 μM (%) [1] | Ki [2] | SMILES | further results |
| --- | --- | --- | --- | --- |
| 51% | 81% | 226 nM | O=C1c2cn(-c3ccc(N4CC[C@H](F)C4)nc3)nc2CN1c1cccnn1 [Example 151] |  |
| 33% | 84% | 84 nM | COc1cncc(N2Cc3nn(-c4ccc(N5CC[C@@H](F)C5)nc4)cc3C2=O)c1 [Example 97] |  |
|  | 75% | 311 nM | O=C1c2cn(-c3ccc(N4CC[C@H](F)C4)nc3)nc2CN1c1ccc(O)nc1 [Example 101] |  |
| 23% | 86% | 111 nM | O=C1c2cn(-c3ccc(N4CC[C@H](F)C4)nc3)nc2CN1c1ncccn1 [Example 18] |  |
| 87% | 108% | 20 nM | Cn1cc(N2Cc3nn(-c4ccc(N5CC[C@@H](F)C5)nc4)cc3C2=O)cn1 [Example 26] |  |
| 68% | 100% | 21 nM | Cl.O=C1c2cn(-c3ccc(N4CC[C@H](F)C4)nc3)nc2CN1c1cnccn1 [Example 17] |  |
| 57% | 83% | 149 nM | Cc1cncc(N2Cc3nn(-c4ccc(N5CC[C@@H](F)C5)nc4)cc3C2=O)c1 [Example 105] |  |
| 51% | 83% | 56 nM | Cc1ccnc(N2Cc3nn(-c4ccc(N5CC[C@@H](F)C5)nc4)cc3C2=O)c1 [Example 80] |  |
| 71% | 88% | 19 nM | O=C1c2cn(-c3ccc(N4CC[C@H](F)C4)nc3)nc2CN1c1ccncc1 [Example 54] |  |
| 72% | 98% | 7 nM | O=C1c2cn(-c3ccc(N4CC[C@@H](F)C4)nc3)nc2CN1c1ccncc1 [Example 2] | Competition at 1 μM (%) [3]: 68% |
| 87% | 101% | 5 nM | O=C1c2cn(-c3ccc(N4CC[C@@H](F)C4)nc3)nc2CN1c1cnccn1 [Example 7] |  |
| 92% | 99% | 6 nM | O=C1c2cn(-c3ccc(N4CCOCC4)nc3)nc2CN1c1cnc(F)cn1 [Example 142] |  |
| 49% | 99% | 67 nM | O=C1c2cn(-c3ccc(N4CC[C@H](F)C4)nc3)nc2CN1c1cccc(O)n1 [Example 163] |  |
| 64% | 94% | 68 nM | O=C1c2cn(-c3ccc(N4CC[C@@H](F)C4)nc3)nc2CN1c1ccnnc1 [Example 25] |  |
| 80% | 91% | 8 nM | Cl.O=C1c2cn(-c3ccc(N4CCCC4)nc3)nc2CN1c1cnc(F)cn1 [Example 143] |  |
|  |  |  | O=C1c2cn(-c3ccc(N4CC[C@@H](F)C4)nc3)nc2CN1c1cccnc1 [Example 1] | Ki ([3]; displacement of [^3H]-a-syn-Ref, average of two independent experiments): 30 nM; binding to PD brain-derived a-syn aggregates ([3]; in words): good binding; Competition at 1 μM (%) [3]: 94%; Ki ([4]; displacement of [^3H]-Abeta-Ref at 10 nM, AD brain-derived homogenates): 330 nM; selectivity for a-syn over Abeta pathological aggregates ([4]; in words): good selectivity for a-syn over Abeta |
| 56% | 90% | 118 nM | O=C1c2cn(-c3ccc(N4CC[C@@H](F)C4)nc3)nc2CN1c1ccc(O)nc1 [Example 81] |  |
| 73% | 96% | 45 nM | O=C1c2cn(-c3ccc(N4CC[C@H](F)C4)nc3)nc2CN1c1ncccc1O [Example 169] |  |
| 58% | 77% | 7 nM | O=C1c2cn(-c3ccc(N4CCCC4)nc3)nc2CN1c1cncc(F)n1 [Example 139] |  |
| 42% | 77% | 132 nM | O=C1c2cn(-c3ccc(N4CC(F)C4)nc3)nc2CN1c1cccnc1 [Example 48] |  |
| 77% | 91% | 40 nM | Cn1ccc(-n2cc3c(n2)CN(c2cncc(F)n2)C3=O)n1 [Example 148] |  |
|  |  |  | O=C1c2cn(-c3ccc(N4CC[C@@H]([18F])C4)nc3)nc2CN1c1cccnc1 [Example-1 [^18F-1]] | SUVmax whole brain [5]: 2.0; time of uptake post injection ([5]; whole brain): 3.5 min; washout, peak to half peak ([5]; whole brain): 14 min |
| 87% | 99% | 13 nM | COc1ccc(N2Cc3nn(-c4ccc(N5CC[C@@H](F)C5)nc4)cc3C2=O)cc1 [Example 27] |  |
| 54% | 81% | 182 nM | Cc1cncc(N2Cc3nn(-c4ccc(N5CC[C@H](F)C5)nc4)cc3C2=O)c1 [Example 108] |  |
| 56% | 92% | 82 nM | O=C1c2cn(-c3ccc(N4CCCC4)nc3)nc2CN1c1cncc(F)c1 [Example 99] |  |
| 34% | 68% | 54 nM | Cc1c2c(nn1-c1ccc(N3CC[C@@H](F)C3)nc1)CN(c1ccccn1)C2=O [Example 95] |  |
| 23% | 83% | 74 nM | O=C1c2cn(-c3ccc(N4CC[C@H](F)C4)nc3)nc2CN1c1ccnnc1 [Example 19] |  |
| 54% | 95% | 2 nM | O=C1c2cn(-c3ccc(N4CC[C@H](F)C4)nc3)nc2CN1c1ccc(F)cc1 [Example 64] |  |
| 44% | 84% | 42 nM | O=C1c2cn(-c3ccc(N4CC[C@@H](F)C4)nc3)nc2CN1c1cncc(F)c1 [Example 91] |  |

| SMILES | Competition at 100 nM (%) [1] | Competition at 1 μM (%) [1] | Ki [2] | further results |
| --- | --- | --- | --- | --- |
| O=C1c2cn(-c3ccc(N4CC[C@H](F)C4)nc3)nc2CN1c1cccnc1 [Example 3] | 45% | 89% | 57 nM |  |
| O=C1c2cn(-c3ccc(N4CC[C@H](F)C4)nc3)nc2CN1c1ccccn1 [Example 6] | 87% | 98% | 19 nM |  |
